Test results taken from patent US9101635B2 (priority 2009, dated 2015).
Read-outs that look alike come from different tables or passages of the source.

How the values were obtained:
[1] = system: HIV/EBOV-GP pseudotype virus; assay: microbe, parasite or virus in culture; type: cell-based, EBOV Zaire strain; settings: for inhibition at 25 µM: read-out: Inhibition of pseudotype virus at 25 μM in 293T cells (%) HIV/EBOV-GP
[2] = system: HIV/HA(H5) pseudotype virus; assay: microbe, parasite or virus in culture; type: cell-based, influenza virus subtype H5
[3] = system: HIV/MARV-GP pseudotype virus; assay: microbe, parasite or virus in culture; type: cell-based, MARV (Lake Victoria strain)
[4] = system: HIV/LASV-GP pseudotype virus; assay: microbe, parasite or virus in culture; type: cell-based, Lassa virus (LASV)
[5] = system: HIV/EBOV-GP pseudotype virus; type: cell-based, EBOV Zaire strain
in vitro [6] = settings: human
[7] = system: recombinant Zaire EBOV expressing green fluorescent protein (GFP-ZEBOV); assay: microbe, parasite or virus in culture; type: cell-based, EBOV (Zaire subtype, 1995 strain)
in vitro [8] = settings: African green monkey
[9] = system: HIV/VSV-G pseudotype virus; assay: microbe, parasite or virus in culture; type: cell-based, vesicular stomatitis virus; settings: for inhibition at 25 µM: Human immunodeficiency virus 1, HEK-293T, read-out: Inhibition of pseudotype virus at 25 μM in 293T cells (%) HIV/VSV-GP
[10] = system: HIV/EBOV-GP pseudotype virus; type: cell-based, EBOV Zaire strain; remark: listed apart in the source
[11] = system: HIV/VSV-G pseudotype virus; type: cell-based, vesicular stomatitis virus
[12] = system: HIV/EBOV-GP pseudotype virus; assay: microbe, parasite or virus in culture; type: cell-based, EBOV Zaire strain; settings: Human immunodeficiency virus 1, HEK-293T
EboZ replication = settings: read-out: IC50, EboZ replication in vitro; cited from earlier work
Vero E6 cells = settings: African green monkey
EBOV Δmucin GP = type: cell-based; settings: pH 5
VSV-G = VSV-G (Vesicular stomatitis Indiana virus, UniProt P03522); type: cell-based; settings: pH 5
VSV-G, sequence (P03522 17-511 limits assumed): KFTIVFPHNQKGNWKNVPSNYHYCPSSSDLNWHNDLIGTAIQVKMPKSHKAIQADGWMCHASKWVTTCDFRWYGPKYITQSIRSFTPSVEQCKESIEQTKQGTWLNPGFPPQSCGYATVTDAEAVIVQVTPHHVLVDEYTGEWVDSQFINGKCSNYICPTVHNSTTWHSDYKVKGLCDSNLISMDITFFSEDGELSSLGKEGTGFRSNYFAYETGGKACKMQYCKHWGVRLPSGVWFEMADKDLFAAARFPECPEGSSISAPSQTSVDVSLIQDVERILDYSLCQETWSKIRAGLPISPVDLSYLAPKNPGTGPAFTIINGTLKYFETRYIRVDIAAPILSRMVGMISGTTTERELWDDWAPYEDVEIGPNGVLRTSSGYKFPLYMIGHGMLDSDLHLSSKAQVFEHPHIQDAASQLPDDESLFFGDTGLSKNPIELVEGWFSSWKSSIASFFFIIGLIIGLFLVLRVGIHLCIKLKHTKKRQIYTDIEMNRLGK

[13] = Human immunodeficiency virus 1, HEK-293T
[14] = Human immunodeficiency virus 1, read-out: HIV/HA (H5) IC90 (μM)
[15] = Human immunodeficiency virus 1, read-out: HIV/MARV-GP IC90 (μM)
[16] = Human immunodeficiency virus 1, read-out: HIV/LASV-GP IC90 (μM)
[17] = Zaire ebolavirus, Vero C1008, read-out: Infectious EBOV IC50 (μM)
[18] = Human immunodeficiency virus 1, HEK-293T, read-out: HIV/EBOV-GP IC90 (μM)
[19] = Zaire ebolavirus, Vero C1008, 48 h, read-out: GFP-ZEBOV IC50 (μM)
[20] = Zaire ebolavirus, Vero C1008, 48 h, read-out: GFP-ZEBOV IC90 (μM)
[21] = Human immunodeficiency virus 1, HEK-293T, read-out: HIV/EBOV-Gp IC90 (μM)
[22] = Human immunodeficiency virus 1, HEK-293T, read-out: IC90 (μM) against HIV/EBOV-GP
[23] = read-out: inhibition of HIV/EBOV-GP infection, Assay 3: compounds pre-incubated with the virus for 1 hour at 37° C.
[24] = read-out: inhibition of infection, Assay 4: compounds pre-incubated with 293T cells at 4° C. before virus

CC1=CC(c2ccccc2)=Nc2cc3ccccc3cc2N1 [Compound G1]
IC50 [1, 13]: 88.3 µM

COc1ccc(OC)c(NC(=O)CC(c2ccc(OC)cc2OC)S(=O)(=O)c2ccccc2)c1 (centres unmarked) [I]
IC90 [2, 14]: > 50 µM | IC90 [3, 15]: 2.8 µM | IC90 [4, 16]: > 50 µM | activity when added after virus infection (+1 h) ("fusion") [5]: active | CC50 (in vitro [6]): 32 µM | IC50 [7, 17]: 4.6 µM | IC90 [1, 18]: 2.7 µM | CC50 (in vitro [8]; Infectious EBOV CC50 (μM)): 40 µM

Oc1ccccc1C1=Nc2ccccc2N=C(c2cccs2)C1 [Compound G8]
IC50 [1, 13]: > 100 µM

Oc1ccccc1C1=Nc2ccccc2N=C(C(F)(F)F)C1 [Compound G5]
IC50 [1, 13]: 70.7 µM

Cc1ccc(N(c2ccc(C)cc2)c2cccnc2)cc1 [H]
inhibition at 25 µM [9]: 30% | CC50 (in vitro [6]): > 50 µM | GFP-ZEBOV percentage in parentheses beside IC90 >25 [7]: >25 (59%) | IC50 [7, 19]: 20 µM | IC90 [7, 20]: > 25 µM | IC90 [1, 21]: 23.5 µM | IC90 [1, 22]: 23.5 µM | inhibition at 25 µM [1, 13]: 100% | CC50 (in vitro [8]; GFP-ZEBOV CC50 (μM)): 22.6 µM

Cc1ccc(C2=Nc3ccccc3N=C(C(F)(F)F)C2)cc1 [Compound G6]
IC50 [1, 13]: 75.7 µM

COc1ccc(O)c(C2=Nc3ccccc3N=C(C(F)(F)F)C2)c1 [Compound G7]
IC50 [1, 13]: 85.7 µM

CCCNC(=O)[C@H]1O[C@@H]1C(=O)N[C@H](C(=O)N1CCC[C@H]1C(=O)O)[C@@H](C)CC [CA-074]
inhibition of HIV/EBOV-GP infection [10]: strongly inhibited | inhibition of HIV/VSV-G infectivity [11]: not

CC[C@@]1(O)C(=O)OCc2c1cc1n(c2=O)Cc2cc3ccccc3nc2-1 [C]
inhibition at 25 µM [9]: 0% | inhibition at 10 µM [12, 23]: > 75% | CC50 (in vitro [6]): 20 µM | IC50 [7, 19]: 10 µM | IC90 [7, 20]: 23.5 µM | IC90 [1, 21]: 0.8 µM | IC90 [1, 22]: 0.8 µM | inhibition at 25 µM [1, 13]: 98% | CC50 (in vitro [8]; GFP-ZEBOV CC50 (μM)): 29.5 µM

Cc1cc2c(cc1C)N=C(C(F)(F)F)CC(c1ccc(Cl)cc1)=N2 [Compound G2]
IC50 [1, 13]: 72.1 µM

O=C(Nc1ccc(Cl)c(Cl)c1)c1ccc([N+](=O)[O-])o1 [E]
inhibition at 25 µM [9]: 25% | CC50 (in vitro [6]): 54 µM | IC50 [7, 19]: 14.5 µM | IC90 [7, 20]: 20 µM | IC90 [1, 21]: 20.8 µM | IC90 [1, 22]: 20.8 µM | inhibition at 25 µM [1, 13]: 98% | CC50 (in vitro [8]; GFP-ZEBOV CC50 (μM)): 40 µM

Nc1nccc2c1ncn2[C@@H]1C[C@H](CO)[C@@H](O)[C@H]1O [C-c3Ado, carbocyclic adenosine analog 3-deazaadenosinc]
IC50 (EboZ replication): 30 µM

Oc1ccc(Cl)cc1C1=Nc2ccccc2N=C(c2ccco2)C1 [Compound G9]
IC50 [1, 13]: > 100 µM

CCOc1ccc(NC(=O)CSc2nnc(COc3cccc(N(C)C)c3)n2-c2ccccc2)cc1 [K]
IC90 [2, 14]: > 50 µM | IC90 [3, 15]: 11 µM | IC90 [4, 16]: > 50 µM | activity when added after virus infection (+1 h) ("fusion") [5]: active | CC50 (in vitro [6]): 98 µM | IC50 [7, 17]: 2.5 µM | selectivity index, third value column of Table 7 (head only in drawing) [1]: 39 | IC90 [1, 18]: 2 µM | IC50 ([1]; Human immunodeficiency virus 1, HEK-293T, read-out: antiviral potency, first value column of Table 7 (head only in drawing)): 2.5 µM | CC50 (in vitro [8]; Infectious EBOV CC50 (μM)): 50 µM | cytotoxicity, second value column of Table 7 (head only in drawing) (293T cells; human): 98

COc1ccc(O)c(C2=Nc3ccccc3N=C(c3cccs3)C2)c1 [Compound G10]
IC50 [1, 13]: > 100 µM

COc1cccc(C(CC(=O)c2ccc(Cl)cc2)C(C#N)C#N)c1 (centres unmarked) [B]
inhibition at 25 µM [9]: 10% | inhibition at 10 µM [12, 23]: > 75% | CC50 (in vitro [6]): 25 µM | IC50 [7, 19]: 10 µM | IC90 [7, 20]: 20 µM | CC50 (Vero E6 cells): 51.5 µM | IC90 [1, 21]: 7.6 µM | IC90 [1, 22]: 7.6 µM | inhibition at 25 µM [1, 13]: 100% | CC50 (in vitro [8]; GFP-ZEBOV CC50 (μM)): > 50 µM

Bafilomycin
inhibition of cell-cell fusion, EBOV expressing cells (EBOV Δmucin GP): completely inhibited | inhibition of cell-cell fusion, VSV-G expressing cells (VSV-G): completely inhibited

O=c1c2ccccc2nc(/C=C/c2ccc([N+](=O)[O-])o2)n1-c1cccc(C(F)(F)F)c1 [D]
inhibition at 25 µM [9]: 15% | inhibition at 10 µM [12, 24]: > 75% | CC50 (in vitro [6]): 30 µM | GFP-ZEBOV percentage in parentheses beside IC90 >25 [7]: >25 (85%) | IC50 [7, 19]: 15.5 µM | IC90 [7, 20]: > 25 µM | CC50 (Vero E6 cells): 62.5 µM | IC90 [1, 21]: 1.1 µM | IC90 [1, 22]: 1.1 µM | inhibition at 25 µM [1, 13]: 100% | CC50 (in vitro [8]; GFP-ZEBOV CC50 (μM)): > 50 µM

N=c1c2c(-c3ccccc3)c(-c3ccccc3)n(Cc3ccco3)c2ncn1CCCn1ccnc1 [F]
inhibition at 25 µM [9]: 20% | inhibition at 10 µM [12, 24]: > 75% | CC50 (in vitro [6]): 25 µM | GFP-ZEBOV percentage in parentheses beside IC90 >25 [7]: >25 (78%) | IC50 [7, 19]: 15 µM | IC90 [7, 20]: > 25 µM | IC90 [1, 21]: 10.9 µM | IC90 [1, 22]: 10.9 µM | inhibition at 25 µM [1, 13]: 98% | CC50 (in vitro [8]; GFP-ZEBOV CC50 (μM)): 48.5 µM

Oc1ccccc1C1=Nc2ccccc2N=C(c2ccco2)C1 [Compound G11]
IC50 [1, 13]: > 100 µM

CCCN(C)c1c([N+](=O)[O-])cc([N+](=O)[O-])c2cccnc12 [A, 5,7-dinitro-8-[methyl(propyl)amino]quinoline]
inhibition at 25 µM [9]: 25% | CC50 (in vitro [6]): 30 µM | IC50 [7, 19]: 7.5 µM | IC90 [7, 20]: 10 µM | IC90 [1, 21]: 18.4 µM | IC90 [1, 22]: 18.4 µM | inhibition at 25 µM [1, 13]: 98% | CC50 (in vitro [8]; GFP-ZEBOV CC50 (μM)): 15 µM

FC(F)(F)C(F)(F)C1=Nc2ccccc2N=C(c2ccccc2)C1 [Compound G3]
IC50 [1, 13]: 70.9 µM

O=[N+]([O-])c1cccc(C2=Nc3ccccc3N=C(c3ccccc3O)C2)c1 [Compound G12]
IC50 [1, 13]: > 100 µM

FC(F)(F)C(F)(F)C1=Nc2cc(Cl)c(Cl)cc2N=C(c2ccccc2)C1 [Compound G4]
IC50 [1, 13]: 3.7 µM

FC(F)C(F)(F)C1=Nc2ccccc2N=C(c2ccccc2)C1 [Compound G]
IC90 ([2]; read-out: HIV/HA (H5) IC90): > 50 µM | Inhibition of pseudotype virus at 25 μM in 293T cells (%) HIV/VSV-GP ([9]; 25 μM): 20% | IC90 ([3]; read-out: HIV/MARV-GP IC90): 10 µM | IC90 ([4]; read-out: HIV/LASV-GP IC90): > 50 µM | inhibition, added at time 0 at 0° C. ("binding") [5]: > 75% | GFP-ZEBOV percentage in parentheses beside IC90 >25 [7]: >25 (70%) | IC50 ([7]; read-out: GFP-ZEBOV IC50): 10 µM | IC90 ([7]; read-out: GFP-ZEBOV IC90): > 25 µM | IC50 ([7]; read-out: Infectious EBOV IC50): 10 µM | Inhibition of pseudotype virus at 25 μM in 293T cells (%) HIV/EBOV-GP ([1]; 25 μM): 96% | IC90 ([1]; read-out: HIV/EBOV-GP IC90): 12.1 µM | IC90 ([1]; read-out: HIV/EBOV-Gp IC90): 12.1 µM | IC50 ([1]; read-out: IC50): 12.1 µM | IC90 ([1]; read-out: IC90 (μM) against HIV/EBOV-GP): 20.1 µM | CC50 (293T cells): 75 µM
